Laboratory results from patent US20220304992A1, “METHODS OF REJUVENATING AGED TISSUE BY INHIBITING 15-HYDROXYPROSTAGLANDIN DEHYDROGENASE (15-PGDH)” (The Board of Trustees of the Leland Stanford Junior …, priority 2019, published 2022).
“Also recorded” adds a separate entry of the source.

How the values were obtained:
[1] = Muscle mass, plantar flexion tetanic force and treadmill endurance in aged and young C57BL/6 mice; type: in vivo, mouse; details: young mice, daily i.p., 1 month
Description: (§1) We performed all experiments and protocols in compliance with the institutional guidelines of Stanford University and Administrative Panel on Laboratory Animal Care (APLAC). Mid (18 mo.) and aged (>24 mo.) mice C57BL/6 were obtained the US National Institute on Aging (NIA) for aged muscle studies, and young (2-4 mo.) wild-type C57BL/6 mice from Jackson Laboratory. Mice were maintained in specific-pathogen free housing on a 12-hour dark/light cycle for study duration.
(§2) Time and distance to exhaustion was performed as previously described (4) for SW-treated mice and their controls (FIG. 3A).
(§3) The peak isometric torque (N·mm) of the ankle plantarflexors was assessed as previously described (8,9). Briefly, the foot of anesthetized mice was placed on a footplate attached to a servomotor (model 300C-LR; Aurora Scientific). Two Pt-Ir electrode needles (Aurora Scientific) were inserted percutaneously were inserted subcutaneously over the tibial nerve, just posterior/posterior-medial to the knee. The ankle joint was secured at a 90° angle. The peak isometric torque was achieved by varying the current delivered to the tibial nerve at a frequency of 200 Hz and a 0.1-ms square wave pulse. We performed three tetanic measurements on each muscle, with 1 min recovery between each measurement. Data were collected with the Aurora Scientific Dynamic Muscle Data Acquisition and Analysis Software.
(§4) We performed all experiments and protocols in compliance with the institutional guidelines of Stanford University and Administrative Panel on Laboratory Animal Care (APLAC). Middle aged (18-20 mo.) and aged (>24 mo.) mice C57BL/6 were obtained the US National Institute on Aging (NIA) for aged muscle studies, and young (2-4 mo.) wild-type C57BL/6 mice from Jackson Laboratory. INK-ATTAC mice were generated as previously described (1). INK-ATTAC healthspan assessments. INK-ATTAC mice were crossed onto the C57BL6/J genetic background and maintained in specific-pathogen free housing on a 12-hour dark/light cycle for study duration. At 12 months of age, male mice were either utilized for baseline healthspan assessments and terminal muscle harvest or randomized to receive twice-weekly vehicle or AP20187 (2 mg/kg intraperitoneal injection; B/B homodimerizer, Clontech) until assessment and sacrifice at 28 months of age (2). […] Time and distance to exhaustion was performed as previously described (4) for SW-treated mice and their controls. […]
as §3, with “described (21, 22).” for “described (8,9).”, “percutaneously and” for “percutaneously were inserted”, “a 0.1—ms” for “a 0.1-ms”

aged mice = assay: as above; type: in vivo, mouse; details: aged (>24 mo) mice, daily i.p. 5 mg/kg, 1 month, 5 mg/kg
Description: as §1, §2, §3, §4
as §3, with “described (21, 22).” for “described (8,9).”, “percutaneously and” for “percutaneously were inserted”, “a 0.1—ms” for “a 0.1-ms”

15-PGDH = biological target: T1, 15-PGDH (Mus musculus, UniProt Q8VCC1); assay: 15-PGDH kinetic assay (PicoProbe kit) in muscle lysates of treated mice; type: in vivo; details: aged mice, daily i.p., 1 month
T1 construct: 15-PGDH specific enzymatic activity assayed in muscle tissues of vehicle and SW treated aged muscles; from tissue; host or cells: skeletal muscle lysates of aged C57BL/6 mice
Experimental: 15-PGDH activity was analyzed in tissue lysates using the BioVision PicoProbe 15-PGDH Activity Assay Kit (Cat # K562) according to the protocol of the manufacturer. Briefly, tissues were isolated and snap frozen in liquid nitrogen.

[2] = tested on: aged mice with PTGDS knockdown; assay: SW treatment of aged mice with AAV9 shRNA knockdown of PTGDS; type: in vivo, mouse; details: aged muscles, SW one month
Experimental: Middle aged (18-20 mo.) and aged (>24 mo.) mice C57BL/6 were obtained the US National Institute on Aging (NIA) for aged muscle studies, and young (2-4 mo.) wild-type C57BL/6 mice from Jackson Laboratory. […] Time and distance to exhaustion was performed as previously described (4) for SW-treated mice and their controls.
Overexpression of Hpgd (15-PGDH) was achieved by integrating AAV9 under CMV promoter and with eGFP under IRES (AA9-CMV-m-HPGD-IRES-eGFP) (Vector Biolabs). The control virus was AAV9-tMCK-eGFP-WPRE.
The peak isometric torque (N·mm) of the ankle plantarflexors was assessed as previously described (21, 22). Briefly, the foot of anesthetized mice was placed on a footplate attached to a servomotor (model 300C-LR; Aurora Scientific). Two Pt-Ir electrode needles (Aurora Scientific) were inserted percutaneously and subcutaneously over the tibial nerve, just posterior/posterior-medial to the knee. The ankle joint was secured at a 90° angle. The peak isometric torque was achieved by varying the current delivered to the tibial nerve at a frequency of 200 Hz and a 0.1—ms square wave pulse. We performed three tetanic measurements on each muscle, with 1 min recovery between each measurement. Data were collected with the Aurora Scientific Dynamic Muscle Data Acquisition and Analysis Software.

pFOXO = assay: Immunoblots of muscle lysates from aged vehicle and SW treated mice; type: in vivo, mouse; details: aged muscles, SW vs vehicle
Experimental: Total lysates were prepared using lysis buffer (50 mM Tris-HCl pH 7.5, 150 mM NaCl, 4 mM CaCl, 1.5% Triton X-100, protease inhibitors and micrococcal nuclease). For tissue extracts, lysates were homogenized a FastPrep 24 homogenizer (MP Biomedicals) for 40 seconds at a speed of 6 m/s. We used the following antibodies: 15-PGDH (Santa Cruz Biotechnology, cat # sc-271418); phospho-AKT (Ser 473) (Cell Signaling cat #4060), AKT (Cell signaling cat #2920); phospho-FoxO1 (Thr24)/FoxO3a (Thr32) Antibody (Cell Signaling cat #9464T); Foxo3a (Cell Signaling cat #2497); phospho-CREB (Ser133) (Cell Signaling cat #9198S); phospho-S6 ribosomal protein (Ser235/236) (Cell Signaling cat#4858); SMC1 (Bethyl Laboratories cat# A300-055A-T). We used HRP conjugated secondary antibodies and developed by incubating the membranes with ECL Western Blotting Substrate (Nacalai USA) and imaging using the ChemiDoc Imaging System (BioRad).

T1 sequence (Q8VCC1 whole entry): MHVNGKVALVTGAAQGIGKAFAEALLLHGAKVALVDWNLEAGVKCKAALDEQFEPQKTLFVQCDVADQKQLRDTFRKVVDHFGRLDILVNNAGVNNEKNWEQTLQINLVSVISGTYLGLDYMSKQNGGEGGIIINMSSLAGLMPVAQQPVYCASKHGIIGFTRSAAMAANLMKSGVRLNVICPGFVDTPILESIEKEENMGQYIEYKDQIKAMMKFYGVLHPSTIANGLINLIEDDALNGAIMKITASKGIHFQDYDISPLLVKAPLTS

For `CCCC[S+]([O-])c1sc2nc(-c3cccs3)cc(-c3ccccc3)c2c1N` (stereo not shown) [SW033291, 2-(butylsulfinyl)-4-phenyl-6-(thiophen-2-yl)thieno[2,3-b]pyridin-3-amine], the absolute strength [1] was “not statistically significant”, the muscle mass [1] was “not statistically significant” and the “endurance (time to exhaustion on a treadmill)” value (aged mice) was “increases; also recorded: significant increase”. The “muscle mass (weight of dissected GA, TA, soleus)” value (aged mice) was “increases; also recorded: significant increase”, the “muscle strength (plantar flexion tetanic force)” value (aged mice) was “increases; also recorded: significant increase” and the “endurance (time to exhaustion on a treadmill)” value (aged mice; listed as SW) was “increased”. For the same compound, the “muscle mass (weight of dissected GA, TA, soleus)” value (aged mice; listed as SW) was “significant increase”, the “muscle strength (plantar flexion tetanic force)” value (aged mice; listed as SW) was “significant increase” and the “15-PGDH specific activity in muscle” value (15-PGDH) was “significantly reduced”. For the same compound, the endurance [2] was “increase”, the muscle force [2] was “increase” and the muscle mass [2] was “increase”. The pFOXO (pFOXO) was “increased”.
